Patent US7704995B2 (Exelixis, Inc., priority 2003, dated 2010)

Target: T1, Chk1 (Homo sapiens, UniProt O14757)
T1 construct: purchased Upstate Biotechnology
T1 sequence (O14757 1-476): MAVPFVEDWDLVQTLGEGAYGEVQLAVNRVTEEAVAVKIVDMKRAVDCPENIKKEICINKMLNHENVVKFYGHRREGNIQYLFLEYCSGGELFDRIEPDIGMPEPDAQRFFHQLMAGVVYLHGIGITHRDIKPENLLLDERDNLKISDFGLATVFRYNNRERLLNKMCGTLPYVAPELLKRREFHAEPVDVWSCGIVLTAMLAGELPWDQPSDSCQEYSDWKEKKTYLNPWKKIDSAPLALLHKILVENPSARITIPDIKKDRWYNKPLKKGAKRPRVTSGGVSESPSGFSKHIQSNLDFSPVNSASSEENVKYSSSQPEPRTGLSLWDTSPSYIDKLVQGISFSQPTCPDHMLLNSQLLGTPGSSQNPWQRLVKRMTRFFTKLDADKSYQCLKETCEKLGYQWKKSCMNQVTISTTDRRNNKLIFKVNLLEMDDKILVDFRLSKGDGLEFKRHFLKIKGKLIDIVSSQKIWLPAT
Test: Chk1 kinase assay: incorporation of γ-33P ATP into immobilized myelin basic protein
Format: biochemical
Conditions: read-out: Chk1 IC50
Summary of the method: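 Enzyme activity is measured as γ-33P transfer from ATP onto immobilized MBP over 1 h at room temperature, with Chk1 at 10 nM/10 μM unlabeled ATP and Chk2 at 20 nM/30 μM unlabeled ATP. Compounds are tested in 1% DMSO.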

| Structure (SMILES) | IC50 |
| --- | --- |
| CNC(=O)c1nc(-c2cccc(C(=O)NCc3cc(C(F)(F)F)cc(C(F)(F)F)c3)c2)cnc1N [Example 262, 3-amino-6-{3-[({[3,5-bis(trifluoromethyl)phenyl]methyl}amino)carbonyl]phenyl}-N-methylpyrazine-2-carboxamide] | 0.05 to 1 µM |
| CNC(=O)c1nc(-c2cccc(C(=O)NCC(c3ccccc3)c3ccccc3)c2)cnc1N [Example 263, 3-amino-6-(3-{[(2,2-diphenylethyl)amino]carbonyl}phenyl)-N-methylpyrazine-2-carboxamide] | 0.05 to 1 µM |
| CNC(=O)c1nc(-c2ccsc2)cnc1N [Example 264, 3-amino-N-methyl-6-(3-thienyl)pyrazine-2-carboxamide] | 0.05 to 1 µM |
| CNC(=O)c1nc(-c2cccc(S(=O)(=O)NCc3ccccc3)c2)cnc1N [Example 265, 3-amino-N-methyl-6-(3-{[(phenylmethyl)amino]sulfonyl}phenyl)pyrazine-2-carboxamide] | 1 to 10 µM |
| CNC(=O)c1nc(-c2cnc(N)c(C(=O)NC)n2)cnc1N [Example 266, 5,5′-diamino-N,N′-dimethyl-2,2′-bipyrazine-6,6′-dicarboxamide] | ≥ 10 µM |
| CNC(=O)c1nc(-c2ccc3[nH]ccc3c2)cnc1N [Example 267, 3-amino-6-(1H-indol-5-yl)-N-methylpyrazine-2-carboxamide] | 0.05 to 1 µM |
| CNC(=O)c1nc(-c2cccs2)cnc1N [Example 268, 3-amino-N-methyl-6-(2-thienyl)pyrazine-2-carboxamide] | 0.05 to 1 µM |
| CNC(=O)c1nc(-c2ccncc2)cnc1N [Example 269, 3-amino-N-methyl-6-pyridin-4-ylpyrazine-2-carboxamide] | 1 to 10 µM |
| Nc1ncc(-c2cccc(C(=O)NCc3ccccc3)c2)nc1C(=O)NC1CC1 [Example 270, 3-amino-N-cyclopropyl-6-(3-{[(phenylmethyl)amino]carbonyl}phenyl)pyrazine-2-carboxamide] | 1 to 10 µM |
| Nc1ncc(-c2cccc(C(=O)NCc3c(F)cccc3Cl)c2)nc1C(=O)NC1CC1 [Example 271, 3-amino-6-[3-({[(2-chloro-6-fluorophenyl)methyl]amino}carbonyl)phenyl]-N-cyclopropylpyrazine-2-carboxamide] | ≥ 10 µM |
| CCNC(=O)c1nc(-c2cccc(C(=O)NCc3ccccc3)c2)cnc1N [Example 272, 3-amino-N-ethyl-6-(3-{[(phenylmethyl)amino]carbonyl}phenyl)pyrazine-2-carboxamide] | 1 to 10 µM |
| CCNC(=O)c1nc(-c2cccc(C(=O)NCc3c(F)cccc3Cl)c2)cnc1N [Example 273, 3-amino-6-[3-({[(2-chloro-6-fluorophenyl)methyl]amino}carbonyl)phenyl]-N-ethylpyrazine-2-carboxamide] | 1 to 10 µM |
| CNC(=O)c1nc(-c2cccc(C(=O)NCc3cccc(Cl)c3Cl)c2)cnc1N [Example 274, 3-amino-6-[3-({[(2,3-dichlorophenyl)methyl]amino}carbonyl)phenyl]-N-methylpyrazine-2-carboxamide] | 0.05 to 1 µM |
| CNC(=O)c1nc(-c2cccc(C(=O)NCc3ccc(Cl)cc3F)c2)cnc1N [Example 275, 3-amino-6-[3-({[(4-chloro-2-fluorophenyl)methyl]amino}carbonyl)phenyl]-N-methylpyrazine-2-carboxamide] | < 0.05 µM |
| CNC(=O)c1nc(-c2cccc(C(=O)NCc3cc(Cl)cc(Cl)c3)c2)cnc1N [Example 276, 3-amino-6-[3-({[(3,5-dichlorophenyl)methyl]amino}carbonyl)phenyl]-N-methylpyrazine-2-carboxamide] | 0.05 to 1 µM |
| CNC(=O)c1nc(-c2cccc(C(=O)NCc3cc(Cl)ccc3F)c2)cnc1N [Example 277, 3-amino-6-[3-({[(5-chloro-2-fluorophenyl)methyl]amino}carbonyl)phenyl]-N-methylpyrazine-2-carboxamide] | 0.05 to 1 µM |
| CNC(=O)c1nc(-c2cccc(C(=O)NC3CC3)c2)cnc1N [Example 278, 3-amino-6-{3-[(cyclopropylamino)carbonyl]phenyl}-N-methylpyrazine-2-carboxamide] | 1 to 10 µM |
| CNC(=O)c1nc(-c2cccc(C(=O)NCc3ccc(Cl)c(Cl)c3)c2)cnc1N [Example 279, 3-amino-6-[3-({[(3,4-dichlorophenyl)methyl]amino}carbonyl)phenyl]-N-methylpyrazine-2-carboxamide] | 0.05 to 1 µM |

| Structure (SMILES) | IC50 |
| --- | --- |
| CNC(=O)c1nc(-c2cccc(C(=O)NCc3ccccc3-c3ccc(F)cc3)c2)cnc1N [Example 280, 3-amino-6-[3-({[(4′-fluorobiphenyl-2-yl)methyl]amino}carbonyl)phenyl]-N-methylpyrazine-2-carboxamide] | 0.05 to 1 µM |
| CNC(=O)c1nc(-c2cccc(C(=O)NCc3ccc(F)c(F)c3F)c2)cnc1N [Example 281, 3-amino-N-methyl-6-[3-({[(2,3,4-trifluorophenyl)methyl]amino}carbonyl)phenyl]pyrazine-2-carboxamide] | 0.05 to 1 µM |
| CNC(=O)c1nc(-c2cccc(C(=O)NCc3c(F)ccc(Cl)c3F)c2)cnc1N [Example 282, 3-amino-6-[3-({[(3-chloro-2,6-difluorophenyl)methyl]amino}carbonyl)phenyl]-N-methylpyrazine-2-carboxamide] | 0.05 to 1 µM |
| CNC(=O)c1nc(-c2cccc(C(=O)NC3c4ccccc4-c4ccccc43)c2)cnc1N [Example 284, 3-amino-6-{3-[(9H-fluoren-9-ylamino)carbonyl]phenyl}-N-methylpyrazine-2-carboxamide] | ≥ 10 µM |
| CNC(=O)c1nc(-c2cccc(C(=O)NCc3ccccc3C)c2)cnc1N [Example 285, 3-amino-N-methyl-6-[3-({[(2-methylphenyl)methyl]amino}carbonyl)phenyl]pyrazine-2-carboxamide] | 0.05 to 1 µM |
| CNC(=O)c1nc(-c2cccc(C(=O)NCc3ccc(C)c(C)c3)c2)cnc1N [Example 286, 3-amino-6-[3-({[(3,4-dimethylphenyl)methyl]amino}carbonyl)phenyl]-N-methylpyrazine-2-carboxamide] | 0.05 to 1 µM |
| CNC(=O)c1nc(-c2cccc(C(=O)NCc3cc(F)ccc3C)c2)cnc1N [Example 287, 3-amino-6-[3-({[(5-fluoro-2-methylphenyl)methyl]amino}carbonyl)phenyl]-N-methylpyrazine-2-carboxamide] | 0.05 to 1 µM |
| CNC(=O)c1nc(-c2cccc(C(=O)NCc3ccc(F)c(F)c3)c2)cnc1N [Example 288, 3-amino-6-[3-({[(3,4-difluorophenyl)methyl]amino}carbonyl)phenyl]-N-methylpyrazine-2-carboxamide] | 0.05 to 1 µM |
| CNC(=O)c1nc(-c2cccc(C(=O)NCc3ccccc3F)c2)cnc1N [Example 289, 3-amino-6-[3-({[(2-fluorophenyl)methyl]amino}carbonyl)phenyl]-N-methylpyrazine-2-carboxamide] | 0.05 to 1 µM |
| CNC(=O)c1nc(-c2cccc(C(=O)NCc3ccc(N4CCN(C)CC4)cc3)c2)cnc1N [Example 290, 3-amino-N-methyl-6-{3-[({[4-(4-methylpiperazin-1-yl)phenyl]methyl}amino)carbonyl]phenyl}pyrazine-2-carboxamide] | 1 to 10 µM |
| CNC(=O)c1nc(-c2ccc(F)c(C(=O)NCc3ccccc3)c2)cnc1N [Example 291, 3-amino-6-(4-fluoro-3-{[(phenylmethyl)amino]carbonyl}phenyl)-N-methylpyrazine-2-carboxamide] | 0.05 to 1 µM |
| CNC(=O)c1nc(-c2cccc(C(=O)NCc3c(Cl)cc(Cl)cc3Cl)c2)cnc1N [Example 292, 3-amino-N-methyl-6-[3-({[(2,4,6-trichlorophenyl)methyl]amino}carbonyl)phenyl]pyrazine-2-carboxamide] | 0.05 to 1 µM |
| CNC(=O)c1nc(-c2cccc(C(=O)NCc3cccc(Cl)c3C)c2)cnc1N [Example 293, 3-amino-6-[3-({[(3-chloro-2-methylphenyl)methyl]amino}carbonyl)phenyl]-N-methylpyrazine-2-carboxamide] | 0.05 to 1 µM |
| CNC(=O)c1nc(-c2cccc(C(=O)NCc3cc(OC)ccc3OC)c2)cnc1N [Example 294, 3-amino-6-{3-[({[2,5-bis(methyloxy)phenyl]methyl}amino)carbonyl]phenyl}-N-methylpyrazine-2-carboxamide] | 0.05 to 1 µM |
| CNC(=O)c1nc(-c2cccc(C(=O)NCc3ccc(C)c(F)c3)c2)cnc1N [Example 295, 3-amino-6-[3-({[(3-fluoro-4-methylphenyl)methyl]amino}carbonyl)phenyl]-N-methylpyrazine-2-carboxamide] | 0.05 to 1 µM |
| CNC(=O)c1nc(-c2cccc(C(=O)NCc3c(F)ccc(C)c3Cl)c2)cnc1N [Example 296, 3-amino-6-[3-({[(2-chloro-6-fluoro-3-methylphenyl)methyl]amino}carbonyl)phenyl]-N-methylpyrazine-2-carboxamide] | 0.05 to 1 µM |
| CNC(=O)c1nc(-c2cccc(C(=O)NCc3c(F)ccc(F)c3Cl)c2)cnc1N [Example 297, 3-amino-6-[3-({[(2-chloro-3,6-difluorophenyl)methyl]amino}carbonyl)phenyl]-N-methylpyrazine-2-carboxamide] | 0.05 to 1 µM |
| CNC(=O)c1nc(-c2cccc(C(=O)NCc3ccc(C)c(F)c3F)c2)cnc1N [Example 298, 3-amino-6-[3-({[(2,3-difluoro-4-methylphenyl)methyl]amino}carbonyl)phenyl]-N-methylpyrazine-2-carboxamide] | 0.05 to 1 µM |
